Results from US5569591A, “Analytical or monitoring apparatus and method” (priority 1990, dated 1996).

What was measured:
[1] = target: vanadate-resistant ATPase of a mutant strain of yeast (Saccharomyces cerevisiae, UniProt P05030); conditions: mutant strain with vanadate-resistant ATPase
[2] = target: T1, H+-ATPase in the plasma membrane of Saccharomyces cerevisiae (Saccharomyces cerevisiae, UniProt P05030); conditions: cells metabolising added D-glucose
Procedure: As described above, a 3rd harmonic was reproducibly observed with resting cell suspensions of S. cerevisiae. This could be ascribed to the presence of the H^+ -ATPase in this organism, and should be expected to reflect a situation in which the enzyme was at static head. An experiment to determine how this behaviour might be modified when the enzyme was driven away from static head and was able (or expected) to do work was carried out. Resting cells were taken, their (usual) non-linear dielectric spectrum recorded, and a metabolisable carbon source (D-glucose) added.

[3] = target: T1, H+-ATPase in the plasma membrane of Saccharomyces cerevisiae; format: cell-based; parameters: endogenous in cells; host or cells: intact S. cerevisiae cells in suspension
Procedure: The spectrometer 10 comprises two electrochemical cells 11, 12. Cell 11 is a test cell containing a sample of the biological system whose nonlinear dielectric properties are being studied. In this example the biological system comprises a system comprising a suspension of S. cerevisiae. The cell concentration was approximately 50 mg dry wt. ml^-1 in a medium of 20 mM KH2 PO4, 30 mM KCl, 1 mM MgCl2 pH 6.5. Tests were carried out within four hours of preparing the suspension. Cell 12 is a reference cell comprising the supernatant of the test suspension, the conductivity of which was adjusted with distilled water to compensate for the volume fraction of cells present in the sample, to be identical to that of the sample at the frequency of interest. The cells 11, 12 were connected to a sinusoidal oscillator 13, via a Data Translation Analog to Digital converter, to an 80386 microcomputer 14.
The sample cell suspension was pipetted into the electrode cell 11 (FIG. 1), the test waveform applied to the (outer) current electrodes, and the data logged from the (inner) voltage electrodes at a sampling frequency (which was typically at 25 times the frequency of the fundamental) and for a time specified by the operator. Time was specified in terms of a number of blocks, each block consisting of 512 samples. At the end of the time specified, the data were Fourier transformed as follows. […]

T1 sequence (P05030 whole entry): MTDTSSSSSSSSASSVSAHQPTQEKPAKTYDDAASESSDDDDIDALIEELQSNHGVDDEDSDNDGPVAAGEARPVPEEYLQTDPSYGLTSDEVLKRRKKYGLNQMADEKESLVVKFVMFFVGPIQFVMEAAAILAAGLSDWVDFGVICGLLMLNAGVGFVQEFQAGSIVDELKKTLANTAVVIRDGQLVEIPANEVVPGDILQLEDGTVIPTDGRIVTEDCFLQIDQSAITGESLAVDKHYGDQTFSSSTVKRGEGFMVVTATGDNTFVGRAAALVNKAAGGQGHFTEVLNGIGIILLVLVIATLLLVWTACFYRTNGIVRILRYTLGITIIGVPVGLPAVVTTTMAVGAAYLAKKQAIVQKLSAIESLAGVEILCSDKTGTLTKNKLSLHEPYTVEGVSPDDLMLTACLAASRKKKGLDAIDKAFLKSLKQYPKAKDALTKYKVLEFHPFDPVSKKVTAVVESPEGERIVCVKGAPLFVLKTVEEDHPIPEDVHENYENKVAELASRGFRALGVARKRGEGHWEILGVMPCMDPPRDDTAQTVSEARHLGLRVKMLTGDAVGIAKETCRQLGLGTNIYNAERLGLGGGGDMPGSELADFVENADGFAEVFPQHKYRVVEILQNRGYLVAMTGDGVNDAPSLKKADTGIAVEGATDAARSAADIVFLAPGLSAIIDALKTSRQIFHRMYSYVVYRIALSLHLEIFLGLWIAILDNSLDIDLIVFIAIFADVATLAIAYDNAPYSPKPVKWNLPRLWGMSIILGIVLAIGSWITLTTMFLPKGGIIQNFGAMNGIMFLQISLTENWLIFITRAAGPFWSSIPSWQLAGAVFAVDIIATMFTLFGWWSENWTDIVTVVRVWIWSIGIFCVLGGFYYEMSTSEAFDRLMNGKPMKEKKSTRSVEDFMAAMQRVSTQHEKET
Chain of vanadate-resistant ATPase of a mutant strain of yeast (P05030 whole entry, change not shown): as the sequence (P05030 whole entry) above

Molecule	generation of harmonics in the presence of vanadate [1]	even (2nd and 4th) harmonics in the presence of vanadate [2]	generation of the 3rd harmonic ([3]; 1 mM sodium metavanadate, FIG. 12)	generation of harmonics ([3]; 0.2 pmol/mg dry wt of cells)
sodium metavanadate	vanadate resistant	vanadate-sensitive	essentially completely abolished	
C(=NC(c1ccccc1)c1ccccc1)=NC(c1ccccc1)c1ccccc1 [dibenzhydryl carbodiimide]				completely abolished
